Assay results: patent US20140303144A1, “COMPOUNDS AND METHODS OF TREATING HYPERTENSION” (Medivation Technologies, Inc., priority 2011, published 2014)

Experiments:
[1] = molecular target: T1, rat adrenergic α1B receptor obtained from Wistar Rat liver (Rattus norvegicus, UniProt P15823); assay: Adrenergic α1B radioligand binding assay ([3H]Prazosin); details: 0.1 μM compound; for Percentage inhibition of ligand binding, Adrenergic α1B: 0.1 µM; for inhibition at 0.1 µM: read-out: Percentage inhibition of ligand binding, Adrenergic α1B
T1 construct: rat adrenergic α1B receptor obtained from Wistar Rat liver; from tissue; host or cells: Wistar rat liver
T1 sequence (P15823 1-515): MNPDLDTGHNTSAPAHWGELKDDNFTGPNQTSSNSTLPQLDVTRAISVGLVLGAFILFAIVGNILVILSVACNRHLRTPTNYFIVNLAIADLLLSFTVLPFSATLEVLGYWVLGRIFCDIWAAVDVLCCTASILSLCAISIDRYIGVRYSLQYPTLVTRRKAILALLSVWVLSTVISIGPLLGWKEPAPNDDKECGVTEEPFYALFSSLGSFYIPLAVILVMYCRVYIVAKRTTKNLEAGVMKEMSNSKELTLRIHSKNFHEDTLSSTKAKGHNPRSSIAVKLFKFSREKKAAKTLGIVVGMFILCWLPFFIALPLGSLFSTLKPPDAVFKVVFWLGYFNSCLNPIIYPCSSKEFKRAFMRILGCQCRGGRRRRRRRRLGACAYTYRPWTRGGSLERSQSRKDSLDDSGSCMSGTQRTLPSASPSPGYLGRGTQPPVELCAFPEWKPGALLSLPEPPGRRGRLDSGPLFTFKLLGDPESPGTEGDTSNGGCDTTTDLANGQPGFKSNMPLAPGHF
Method: To evaluate in radioligand binding assays the activity of compounds of the invention, rat adrenergic α1B receptor obtained from Wistar Rat liver (Garcia-S'ainz, J. et al, Biochem. Biophys. Res. Commun. 186:760, 1992; Michel, A. et al, Br. J. Pharmacol. 98:883, 1989) in a modified Tris-HCl buffer (50 mM Tris-HCl buffer, pH 7.4, 0.5 mM EDTA) was used. Compounds of the invention were incubated with 0.25 nM [^3H]Prazosin for 60 min at 25° C. Non-specific binding was estimated in the presence of 10 μM phentolamine. Receptor proteins were filtered and washed, the filters were then counted to determine [^3H]Prazosin specifically bound. Compounds were screened at 1 μM or lower, using 1% DMSO as vehicle. Compounds of the invention were tested in this biochemical assay and percent inhibition of specific binding was determined. Biochemical assay results are presented as the percent inhibition of specific binding in Tables B1A-B1D.

[2] = molecular target: T2, human recombinant adrenergic α2A receptor (Homo sapiens, UniProt P08913); assay: Adrenergic α2A radioligand binding assay ([3H]MK-912); details: for Percentage inhibition of ligand binding, Adrenergic α2A / inhibition at 0.1 µM: 0.1 μM compound; for Percentage inhibition of ligand binding, Adrenergic α2A: 0.1 µM; for inhibition at 0.1 µM / inhibition at 1 µM: read-out: Percentage inhibition of ligand binding, Adrenergic α2A; for inhibition at 1 µM: 1 μM compound
T2 construct: expressed in transfected cells; host or cells: insect Sf9 cells
T2 sequence (P08913 1-465): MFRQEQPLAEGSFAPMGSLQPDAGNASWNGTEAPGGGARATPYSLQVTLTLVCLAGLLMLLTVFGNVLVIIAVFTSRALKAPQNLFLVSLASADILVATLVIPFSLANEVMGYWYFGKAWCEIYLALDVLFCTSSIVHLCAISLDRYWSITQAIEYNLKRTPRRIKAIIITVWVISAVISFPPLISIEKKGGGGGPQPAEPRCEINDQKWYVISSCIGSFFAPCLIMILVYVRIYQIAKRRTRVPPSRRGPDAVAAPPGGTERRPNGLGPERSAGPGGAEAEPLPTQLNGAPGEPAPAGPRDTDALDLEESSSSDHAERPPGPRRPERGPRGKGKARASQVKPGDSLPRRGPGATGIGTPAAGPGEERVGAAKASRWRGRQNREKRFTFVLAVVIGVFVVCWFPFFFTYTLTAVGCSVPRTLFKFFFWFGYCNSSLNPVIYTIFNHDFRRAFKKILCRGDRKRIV
Method: To evaluate in radioligand binding assays the activity of compounds of the invention, human recombinant adrenergic α2A receptor expressed in insect Sf9 cells (Uhlen, S. et al, J. Pharmacol. Exp. Ther. 271:1558, 1994) in a modified Tris-HCl buffer (50 mM Tris-HCl, pH 7.4, 12.5 mM MgCl2, 2 mM EDTA) was used. Compounds of invention were incubated with 1 nM [^3H]MK-912 for 60 min at 25° C. MK912 was (2S-trans)-1,3,4,5′,6,6′,7,12b-octahydro-1′,3′-dimethyl-spiro[2H-benzofuro[2,3-a]quinolizine-2,4′(1′H)-pyrimidin]-2′(3′H)-one hydrochloride Non-specific binding was estimated in the presence of 10 μM WB-4101 (2-(2,6-Dimethoxyphenoxyethyl)aminomethyl-1,4-benzodioxane hydrochloride). Receptor proteins were filtered and washed, the filters were then counted to determine [^3H]MK-912 specifically bound. Compounds were screened at 1 μM or lower, using 1% DMSO as vehicle. Compounds of the invention were tested in this biochemical assay and percent inhibition of specific binding was determined. Biochemical assay results are presented as the percent inhibition of specific binding in Tables B1A-B1D.

[3] = molecular target: T3, human recombinant adrenergic α1D receptor (Homo sapiens, UniProt P25100); assay: Adrenergic α1D radioligand binding assay ([3H]Prazosin); details: for inhibition at 1 µM: 1 μM compound
T3 construct: expressed in transfected cells; host or cells: HEK-293 cells
T3 sequence (P25100 1-572): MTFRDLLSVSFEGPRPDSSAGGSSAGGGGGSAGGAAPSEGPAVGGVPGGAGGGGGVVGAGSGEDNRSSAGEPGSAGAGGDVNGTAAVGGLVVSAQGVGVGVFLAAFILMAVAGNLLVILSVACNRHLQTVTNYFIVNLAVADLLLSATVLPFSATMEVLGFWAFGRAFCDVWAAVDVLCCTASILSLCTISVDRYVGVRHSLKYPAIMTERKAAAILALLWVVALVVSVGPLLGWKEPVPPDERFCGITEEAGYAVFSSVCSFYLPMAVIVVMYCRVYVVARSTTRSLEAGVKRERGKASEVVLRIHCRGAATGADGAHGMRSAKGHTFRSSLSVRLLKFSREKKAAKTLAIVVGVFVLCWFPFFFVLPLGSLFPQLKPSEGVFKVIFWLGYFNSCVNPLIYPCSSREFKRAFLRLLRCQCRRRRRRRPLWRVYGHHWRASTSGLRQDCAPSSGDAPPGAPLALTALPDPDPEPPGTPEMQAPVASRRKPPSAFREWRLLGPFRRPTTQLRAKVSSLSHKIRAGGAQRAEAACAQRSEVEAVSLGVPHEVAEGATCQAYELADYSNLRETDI
Method: To evaluate in radioligand binding assays the activity of compounds of the invention, human recombinant adrenergic α1D receptor expressed in human embryonic kidney (HEK-293) cells (Kenny, B. et al, Br. J. Pharmacol. 115(6):981, 1995) in a 50 mM Tris-HCl buffer, pH 7.4, was used. Compounds were incubated with 0.6 nM [3H]Prazosin for 60 min at 25° C. Non-specific binding was estimated in the presence of 10 μM phentolamine. Receptor proteins were filtered and washed, the filters were then counted to determine [3H]Prazosin specifically bound. Compounds were screened at 1 μM or lower, using 1% DMSO as vehicle. Biochemical assay results are presented as the percent inhibition of specific binding in Tables B1A-B1D.

[4] = molecular target: T4, human recombinant adrenergic α2B receptor (Homo sapiens, UniProt P18089); assay: Adrenergic α2B radioligand binding assay ([3H]Rauwolscine); details: for Percentage inhibition of ligand binding, Adrenergic α2B / inhibition at 0.1 µM: 0.1 μM compound; for Percentage inhibition of ligand binding, Adrenergic α2B: 0.1 µM; for inhibition at 0.03 µM: 0.03 μM compound; for inhibition at 0.03 µM / inhibition at 0.1 µM / inhibition at 1 µM: read-out: Percentage inhibition of ligand binding, Adrenergic α2B; for inhibition at 1 µM: 1 μM compound
T4 construct: expressed in transfected cells; host or cells: CHO-K1 cells
T4 sequence (P18089 1-450): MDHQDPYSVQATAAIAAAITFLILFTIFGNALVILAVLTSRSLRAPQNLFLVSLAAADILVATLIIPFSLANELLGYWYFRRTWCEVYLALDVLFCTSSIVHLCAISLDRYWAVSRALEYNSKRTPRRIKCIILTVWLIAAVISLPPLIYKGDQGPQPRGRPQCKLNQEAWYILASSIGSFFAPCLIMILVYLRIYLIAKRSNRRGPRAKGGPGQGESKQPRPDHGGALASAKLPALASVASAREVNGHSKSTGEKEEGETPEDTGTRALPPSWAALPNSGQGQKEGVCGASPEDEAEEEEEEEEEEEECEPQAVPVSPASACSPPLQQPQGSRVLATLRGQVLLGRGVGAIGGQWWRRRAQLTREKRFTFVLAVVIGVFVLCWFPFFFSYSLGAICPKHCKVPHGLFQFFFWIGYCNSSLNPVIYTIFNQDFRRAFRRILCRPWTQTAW
Method: To evaluate in radioligand binding assays the activity of compounds of the invention, human recombinant adrenergic α2B receptor expressed in Chinese hamster ovary (CHO) K1 cells (Uhlen, S. et al, Eur. J. Pharmacol. 343(1):93, 1998) in a modified Tris-HCl buffer (50 mM Tris-HCl, pH 7.4, 12.5 mM MgCl2, 1 mM EDTA, 0.2% BSA) was used. Compounds of the invention were incubated with 2.5 nM [3H]Rauwolscine for 60 min at 25° C. Non-specific binding was estimated in the presence of 10 μM Prazosin. Receptor proteins were filtered and washed, the filters were then counted to determine [3H]Rauwolscine specifically bound. Compounds were screened at 1 μM or lower, using 1% DMSO as vehicle. Compounds of the invention were tested in this biochemical assay and percent inhibition of specific binding was determined. Biochemical assay results are presented as the percent inhibition of specific binding in Tables B1A-B1D.

SH-SY5Y cells = assay: Cell viability assay (MTS reduction) against 4-Br-A23187 challenge; format: cell-based; details: compound 10 nM, 4-Br-A23187 (2 μM) for 24 h; for Relative Cytoprotective capacity: Control = 100, Vehicle = 0
Method: SH-SY5Y cells cultured in DMEM/F12 media supplemented with 10% FBS were seeded in 96-well microplates at 150,000 cells/cm^2. After 24 h, cells were depleted from FBS and kept in culture for 24 h before the experiment. A stock solution was prepared by dissolving the calcium ionophore 4-Br-A23187 (Calbiochem Cat. N^o 100107) in DMSO at 25 mM. Cells were then treated with 4-Br-A23187 (2 μM), hydrogen peroxide (300 μM) or the mitochondrial toxin rotenone (25 μM) in the presence of vehicle or Compound of the Invention for 24 h. Cell death was determined by measurements of LDH release according to the Cytotoxicity Detection KitPlus (Roche, Mannheim, Germany). Cell viability was determined by measuring the capacity of cells to metabolize MTS tetrazolium (MTS) according to the Cytotoxicity Detection KitPlus (Roche, Mannheim, Germany) and MTS reduction was assessed by the CellTiter 96® AQueous One Solution Cell Proliferation assay (Promega Corporation, Madison, Wis., USA). Compounds were screened at 10 nM, using DMSO as vehicle. Assay results for the experiments with Br-A23187 were presented as the MTS reduction capacity (cell viability) of untreated cells (control), 4-Br-A23187-treated cells (vehicle), and co-incubation of Br-A23187 with Compounds of the Invention treated cells and using […] (FCCP) at 10 μM for 30 min as a control. This assay assesses the ability of the test compounds to protect against cell death that was mediated by mitochondrial dysfunction. In the assay, the calcium ionophore 4-Br-A23187 was used to challenge the cells, causing calcium levels to rise in mitochondria, which leads to depolarization and cell death. Test compounds were assessed for their ability to prevent cell death in response to challenge with 4-Br-A23187.

[5] = read-out: Percentage inhibition of ligand binding, Adrenergic α1D

## Cc1cc2c3c(c1)c1c(n3CC(C)(c3ccc(C)nc3)OC2C)CCN(C)C1 (stereo not shown) [B164]
[1]
  Percentage inhibition of ligand binding, Adrenergic α1B: 12%
[2]
  Percentage inhibition of ligand binding, Adrenergic α2A: 6%
[3]; 0.1 μM compound, 0.1 µM
  Percentage inhibition of ligand binding, Adrenergic α1D: 2%
[4]
  Percentage inhibition of ligand binding, Adrenergic α2B: 16%

## Cc1cc(CC(O)c2ccncc2)c2[nH]c3c(c2c1)CN(C)CC3 (stereo not shown) [A43]
[1]
  inhibition at 0.1 µM: -1%
[2]
  inhibition at 0.1 µM: 7%
[4]
  inhibition at 0.03 µM: 26%

## Cc1cc2c(-c3ccccc3)cn3c4c(c(c1)c23)CN(C)CC4 [B211]
[4]
  inhibition at 0.1 µM: 82%

## Cc1cc2c3c(c1)c1c(n3CC(c3ccc(C)nc3)C2)CCN(C)C1 (stereo not shown) [B1]
[2]
  inhibition at 1 µM: 15%
[3]; [5]
  inhibition at 1 µM: 28%
[4]
  inhibition at 1 µM: 47%

## Cc1ccc2[nH]c3c(c2c1)CN(C)CC3(C)CCc1ccccc1 (stereo not shown) [C43]
SH-SY5Y cells
  Relative Cytoprotective capacity: 9.618

## Cc1ccc2c(c1)c1c(n2C)C(C)(CCc2nc(-c3ccccc3)cs2)CN(C)C1 (stereo not shown) [C48]
SH-SY5Y cells
  Relative Cytoprotective capacity: 52.14

## Cc1cc(C#Cc2ccc(C)nc2)c2[nH]c3c(c2c1)CN(C)CC3 [A6]
SH-SY5Y cells; Homo sapiens, SH-SY5Y, Control = 100, Vehicle = 0, read-out: Relative Cytoprotective capacity
  viability at 0.01 µM: 27.6%

## Cc1cc2c3c(c1)c1c(n3CC(c3ccc(F)cc3)C2)CCN(C)C1 (stereo not shown) [B3]
[2]
  inhibition at 1 µM: 89%
[3]; [5]
  inhibition at 1 µM: 38%
[4]
  inhibition at 1 µM: 68%

## Cc1ccc(C2Cn3c4c(c5cccc2c53)CN(C)CC4)cn1 (stereo not shown) [B210]
[4]
  inhibition at 0.1 µM: 14%

## Cc1cc(CC(O)c2ccncc2)c2c(c1)c1c(n2C)CCN(C)C1 (stereo not shown) [A44]
[1]
  inhibition at 0.1 µM: -3%
[2]
  inhibition at 0.1 µM: -5%
[4]
  inhibition at 0.03 µM: 31%

## Cc1cc2c3c(c1)c1c(n3CC2c2ccc(F)cc2)CCN(C)C1 (stereo not shown) [B2]
[2]
  inhibition at 1 µM: 89%
[3]; [5]
  inhibition at 1 µM: 24%
[4]
  inhibition at 1 µM: 74%

## Cc1cc2c3c(c1)c1c(n3CC(C)(c3ccc(C)nc3)OC2C)CCN(C)C1 (stereo not shown) [B161]
[1]
  Percentage inhibition of ligand binding, Adrenergic α1B: 2%
[2]
  Percentage inhibition of ligand binding, Adrenergic α2A: 13%
[3]; 0.1 μM compound, read-out: Percentage inhibition of ligand binding, Adrenergic α1D
  inhibition at 0.1 µM: 1%
[4]
  Percentage inhibition of ligand binding, Adrenergic α2B: 7%
